The text below walks through data of patent US20220251610A1, “Prehydrolysate Fermentability in Biomass Pretreatment” (University of Cincinnati, priority 2021, published 2022).

One test deals with Saccharomyces cerevisiae. The test can be described thus: Yeast fermentation of prehydrolysates from dilute acid pretreatment of aspen with nucleophilic additives. Format: cell-based. The settings on record: for time at which glucose was completely consumed: 4% (w/w of dry biomass) additive in dilute acid pretreatment, glucose about 20 g/L; for final ethanol concentration / glucose consumption rate / volumetric ethanol productivity: 4% additive in pretreatment; for final ethanol concentration: 48 h fermentation; for glucose consumption rate / volumetric ethanol productivity: first 6 h of fermentation. On the procedure: This analysis was carried out according to the NREL protocol. All pretreatment experiments were carried out in a Parr batch pressure vessel (model of 4520 of 2.0 L of capacity) (Parr Instrument Co., Moline, Ill.). […] All the pretreatment processes were conducted at 170° C. in 60 min. After pretreatment, the stirred reactor was quenched in a bucket with cold water. The slurry after pretreatment was separated into solid fraction and liquid fraction by vacuum filtration. The liquid fraction (prehydrolysates) was stored at 4° C. and used for subsequent analyses and fermentation. The pretreated substrates were washed with 560 mL warm water at least three times and collected by vacuum filtration. Fleischmann's pure dry yeast, Saccharomyces cerevisiae was stored at 4° C. and used for the ethanol fermentation. […] The concentration of yeast suspensions was determined by UV-spectrophotometer at 600 nm. […] Batch fermentation was taking place in a 250 mL flask with 50 mL prehydrolysates without any extra nutrients. […] Moreover, excessive CaCO3 was added to adjust the pH of prehydrolysates to 6. Then, the solution was filtered to remove CaCO3 and other impurities through the membrane filter (0.22 μm). All fermentation experiments were incubated at 30° C. and 150 rpm for 48 h in an incubator shaker (E24, New Brunswick Scientific). […] Fermentation was conducted in duplicate. The volumetric ethanol productivity (QEtOH) was calculated based on the produced ethanol in the first 6 h of fermentation as described previously. […] The sugar concentrations were detected by an Agilent 1260 HPLC system equipped with a Bio-Rad HPX-87P column (300×7.8 mm) connected to a refractive index detector (RID-10A). […] The column temperature and detector temperature were kept at 80, and 45° C., respectively. […] To examine whether adding nucleophilic additives in pretreatment can enhance prehydrolysate fermentability, cysteine, histidine, soy protein isolate (SPI) and bovine serum albumin (BSA) were added in the dilute acid pretreatment of aspen.

The conditions of test [1]: Xylan 1.67 g/L; cited from earlier work.

For `N[C@@H](CS)C(=O)O` [cysteine], in the test on Saccharomyces cerevisiae, the “time at which glucose was completely consumed” value turned out to be 24 h, the final ethanol concentration was determined as 8.87 g/L, the glucose consumption rate is 1.35 g/L/h and the volumetric ethanol productivity is 0.51 g/L/h.
Regarding `N[C@@H](Cc1c[nH]cn1)C(=O)O` [histidine], in the test on Saccharomyces cerevisiae, the “time at which glucose was completely consumed” value is on record as 6 h, the final ethanol concentration turned out to be 8.69 g/L, the glucose consumption rate is 3.22 g/L/h and the volumetric ethanol productivity amounted to 1.44 g/L/h.
Take Xylan: the “reduction of the initial hydrolysis rate of Avicel” value in test [1] is listed as 34.5%.
